Data taken from ChEMBL document CHEMBL5214927, “Recent advance on carbamate-based cholinesterase inhibitors as potential multifunctional agents against Alzheimer's disease” (Eur J Med Chem, 2022).
pIC50, pKi: −log10 of the molar value.

Columns and labels:
[1] = molecular target: T1, Acetylcholinesterase (Rattus norvegicus, UniProt P37136); experiment: Inhibition of rat AChE by Ellman's method
T1 sequence (P37136 whole entry): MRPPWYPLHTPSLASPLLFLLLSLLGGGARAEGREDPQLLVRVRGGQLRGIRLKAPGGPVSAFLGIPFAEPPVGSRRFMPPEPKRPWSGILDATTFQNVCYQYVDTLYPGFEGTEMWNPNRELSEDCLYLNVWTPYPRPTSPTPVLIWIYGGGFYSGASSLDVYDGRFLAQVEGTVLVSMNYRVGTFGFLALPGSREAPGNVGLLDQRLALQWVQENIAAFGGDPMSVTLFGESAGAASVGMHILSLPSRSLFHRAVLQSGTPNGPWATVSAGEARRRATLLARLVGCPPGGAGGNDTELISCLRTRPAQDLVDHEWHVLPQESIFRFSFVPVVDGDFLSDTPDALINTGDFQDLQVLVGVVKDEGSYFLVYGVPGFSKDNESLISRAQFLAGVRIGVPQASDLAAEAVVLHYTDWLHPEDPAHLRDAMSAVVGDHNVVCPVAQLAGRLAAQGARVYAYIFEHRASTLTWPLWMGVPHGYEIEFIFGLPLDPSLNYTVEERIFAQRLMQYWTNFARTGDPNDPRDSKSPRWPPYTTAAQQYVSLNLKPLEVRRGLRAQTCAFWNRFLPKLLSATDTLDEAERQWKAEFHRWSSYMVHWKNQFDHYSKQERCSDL

[2] = molecular target: T2, Amine oxidase [flavin-containing] A (Homo sapiens, UniProt P21397); experiment: Inhibition of MAO-A (unknown origin)
T2 sequence (P21397 whole entry): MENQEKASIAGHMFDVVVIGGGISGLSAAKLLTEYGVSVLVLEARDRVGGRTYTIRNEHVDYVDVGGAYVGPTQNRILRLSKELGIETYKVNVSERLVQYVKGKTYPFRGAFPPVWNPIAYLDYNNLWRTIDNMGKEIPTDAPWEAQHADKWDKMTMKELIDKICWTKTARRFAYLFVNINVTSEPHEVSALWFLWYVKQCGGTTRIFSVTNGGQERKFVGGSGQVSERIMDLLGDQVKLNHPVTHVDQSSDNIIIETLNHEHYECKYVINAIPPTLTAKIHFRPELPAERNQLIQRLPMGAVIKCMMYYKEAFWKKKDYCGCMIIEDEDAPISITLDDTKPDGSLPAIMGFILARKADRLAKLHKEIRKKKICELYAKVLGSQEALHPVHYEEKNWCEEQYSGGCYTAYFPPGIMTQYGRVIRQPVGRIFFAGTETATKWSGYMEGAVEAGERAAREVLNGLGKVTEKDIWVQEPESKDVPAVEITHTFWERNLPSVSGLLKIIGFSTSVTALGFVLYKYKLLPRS

[3] = molecular target: T3, Amine oxidase [flavin-containing] B (Homo sapiens, UniProt P27338); experiment: Inhibition of MAO-B (unknown origin)
T3 sequence (P27338 whole entry): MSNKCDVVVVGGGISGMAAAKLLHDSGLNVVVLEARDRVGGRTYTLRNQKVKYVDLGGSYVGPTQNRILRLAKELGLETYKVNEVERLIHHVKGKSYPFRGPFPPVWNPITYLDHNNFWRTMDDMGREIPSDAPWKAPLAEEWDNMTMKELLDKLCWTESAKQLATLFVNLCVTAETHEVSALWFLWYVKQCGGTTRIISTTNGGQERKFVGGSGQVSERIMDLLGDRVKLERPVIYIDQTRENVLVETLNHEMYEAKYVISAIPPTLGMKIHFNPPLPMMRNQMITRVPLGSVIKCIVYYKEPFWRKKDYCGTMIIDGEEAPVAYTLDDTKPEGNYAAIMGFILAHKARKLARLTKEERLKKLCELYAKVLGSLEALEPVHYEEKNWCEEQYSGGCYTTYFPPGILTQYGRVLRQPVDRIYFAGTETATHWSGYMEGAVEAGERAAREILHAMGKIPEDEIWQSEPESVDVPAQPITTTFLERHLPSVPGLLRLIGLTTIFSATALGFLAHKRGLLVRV

[4] = molecular target: T4, Acetylcholinesterase (Homo sapiens, UniProt P22303); experiment: Binding affinity to human AChE assessed as inhibition constant using acetylthiocholine iodide as substrate preincubated for 10 mins followed by substrate addition by Ellman's method
[5] = molecular target: Carbonic anhydrase 1 (Homo sapiens, UniProt P00915); experiment: Binding affinity to human CA1 assessed as inhibition constant using p-nitrophenylacetate as substrate by spectrophotometry
[6] = molecular target: Carbonic anhydrase 2 (Homo sapiens, UniProt P00918); experiment: Binding affinity to human CA2 assessed as inhibition constant using p-nitrophenylacetate as substrate by spectrophotometry
[7] = molecular target: T4, Acetylcholinesterase; experiment: Binding affinity to human AChE assessed as inhibition constant
[8] = molecular target: T5, Cholinesterase (Homo sapiens, UniProt P06276); experiment: Binding affinity to human BChE assessed as inhibition constant
[9] = molecular target: T6, Cholinesterases; ACHE & BCHE (Homo sapiens) (UniProt P06276+P22303); experiment: Selectivity index, ratio of IC50 for AChE (unknown origin) to BChE (unknown origin); type: protein assay
[10] = molecular target: Acetylcholinesterase (Torpedo californica, UniProt P04058)
Description: Inhibition of Pacific electric ray AChE using acetylthiocholine iodide as substrate by Ellman's method

[11] = molecular target: T4, Acetylcholinesterase; experiment: Inhibition of recombinant human AChE using acetylthiocholine as substrate at 100 uM preincubated for 5 mins followed by substrate addition measured for 1 min by Ellman's method relative to control; settings: time 6.0 min
[12] = molecular target: T2, Amine oxidase [flavin-containing] A; experiment: Inhibition of recombinant human MAO-A expressed in BTI-TN-5B1-4 insect cells using p-tyramine as substrate at 100 uM preincubated for 15 mins followed by substrate addition measured after 20 mins by Amplex Red assay relative to control; settings: BTI-TN-5B1-4, human, time 35 min
[13] = molecular target: T4, Acetylcholinesterase; experiment: Inhibition of human erythrocyte AChE using acetylthiocholine iodide as substrate preincubated for 6 mins followed by substrate addition measured upto 180 secs by Ellman's method
[14] = molecular target: T2, Amine oxidase [flavin-containing] A; experiment: Inhibition of recombinant human MAO-A using p-tyramine as substrate preincubated for 15 mins followed by substrate addition measured upto 20 mins by Amplex red assay
[15] = molecular target: T4, Acetylcholinesterase; experiment: Inhibition of human whole red blood cells AChE using acetylthiocholine iodide as substrate incubated for 25 mins by Ellman's method
[16] = molecular target: T5, Cholinesterase; experiment: Inhibition of human whole red blood cells BChE using butyrylthiocholine iodide as substrate incubated for 25 mins by Ellman's method
[17] = molecular target: T6, Cholinesterases; ACHE & BCHE (Homo sapiens); experiment: Selectivity index, ratio of IC50 for human whole red blood cells BChE to IC50 for human whole red blood cells AChE
[18] = molecular target: T4, Acetylcholinesterase; experiment: Binding affinity to AChE (unknown origin) assessed as inhibition constant using acetylthiocholine iodide as substrate preincubated for 10 mins followed by substrate addition by Ellman's method
[19] = molecular target: T5, Cholinesterase; experiment: Inhibition of recombinant human serum BChE using butyrylthiocholine iodide as substrate preincubated for 20 mins followed by substrate addition measured for 45 to 90 mins by Ellman's method
[20] = molecular target: Fatty-acid amide hydrolase 1 (Rattus norvegicus, UniProt P97612); experiment: Displacement of [14C]-ethanolamine from FAAH derived from rat brain membrane fraction preincubated for 20 mins followed by susbstrate addition by scintillation counting method; type: cell membranes
[21] = molecular target: T6, Cholinesterases; ACHE & BCHE (Homo sapiens); experiment: Selectivity index, ratio of IC50 for recombinant human serum AChE to IC50 for recombinant human serum BChE; type: protein assay
[22] = molecular target: T3, Amine oxidase [flavin-containing] B; experiment: Inhibition of recombinant human MAO-B using p-tyramine as substrate preincubated for 15 mins followed by substrate addition measured upto 20 mins by Amplex red assay
[23] = molecular target: T4, Acetylcholinesterase; experiment: Binding affinity to AChE (unknown origin) assessed as inhibition constant preincubated for 60 mins followed by substrate addition measured after 60 mins by colorimetric method
[24] = molecular target: Beta-secretase 1 (Homo sapiens, UniProt P56817); experiment: Inhibition of BACE1 (unknown origin) using A-beta-PP as substrate by fluorescence based assay
Chain of Beta-secretase 1 (P56817 whole entry): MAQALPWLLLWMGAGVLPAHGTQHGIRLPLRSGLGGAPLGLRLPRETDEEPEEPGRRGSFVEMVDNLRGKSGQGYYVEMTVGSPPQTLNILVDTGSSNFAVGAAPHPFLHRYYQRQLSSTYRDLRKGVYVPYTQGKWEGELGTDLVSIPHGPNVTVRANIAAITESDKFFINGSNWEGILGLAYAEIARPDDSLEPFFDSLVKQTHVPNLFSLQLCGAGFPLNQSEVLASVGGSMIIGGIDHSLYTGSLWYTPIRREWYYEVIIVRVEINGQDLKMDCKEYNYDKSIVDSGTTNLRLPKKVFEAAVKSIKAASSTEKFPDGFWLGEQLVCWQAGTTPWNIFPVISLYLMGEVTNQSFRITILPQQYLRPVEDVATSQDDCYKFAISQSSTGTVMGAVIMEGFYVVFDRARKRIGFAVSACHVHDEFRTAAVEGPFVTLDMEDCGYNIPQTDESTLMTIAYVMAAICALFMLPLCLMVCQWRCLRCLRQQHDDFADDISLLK

T4 sequence (P22303 whole entry): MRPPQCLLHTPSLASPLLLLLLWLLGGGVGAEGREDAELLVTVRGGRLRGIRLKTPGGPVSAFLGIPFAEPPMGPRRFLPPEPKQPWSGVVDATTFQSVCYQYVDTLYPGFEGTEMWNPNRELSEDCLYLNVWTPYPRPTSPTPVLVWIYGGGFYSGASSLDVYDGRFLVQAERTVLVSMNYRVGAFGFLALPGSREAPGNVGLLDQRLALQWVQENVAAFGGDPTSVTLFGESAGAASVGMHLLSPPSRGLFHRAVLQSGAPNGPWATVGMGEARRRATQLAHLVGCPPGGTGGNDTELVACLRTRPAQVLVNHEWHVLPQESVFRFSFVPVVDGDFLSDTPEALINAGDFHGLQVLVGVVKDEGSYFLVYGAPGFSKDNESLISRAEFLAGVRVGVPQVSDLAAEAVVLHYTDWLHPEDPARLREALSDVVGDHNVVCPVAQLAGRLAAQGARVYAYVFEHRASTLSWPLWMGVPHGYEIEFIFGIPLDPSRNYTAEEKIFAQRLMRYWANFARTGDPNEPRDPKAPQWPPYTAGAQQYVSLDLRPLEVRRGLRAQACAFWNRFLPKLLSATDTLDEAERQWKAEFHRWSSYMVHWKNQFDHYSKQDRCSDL
T5 sequence (P06276 whole entry): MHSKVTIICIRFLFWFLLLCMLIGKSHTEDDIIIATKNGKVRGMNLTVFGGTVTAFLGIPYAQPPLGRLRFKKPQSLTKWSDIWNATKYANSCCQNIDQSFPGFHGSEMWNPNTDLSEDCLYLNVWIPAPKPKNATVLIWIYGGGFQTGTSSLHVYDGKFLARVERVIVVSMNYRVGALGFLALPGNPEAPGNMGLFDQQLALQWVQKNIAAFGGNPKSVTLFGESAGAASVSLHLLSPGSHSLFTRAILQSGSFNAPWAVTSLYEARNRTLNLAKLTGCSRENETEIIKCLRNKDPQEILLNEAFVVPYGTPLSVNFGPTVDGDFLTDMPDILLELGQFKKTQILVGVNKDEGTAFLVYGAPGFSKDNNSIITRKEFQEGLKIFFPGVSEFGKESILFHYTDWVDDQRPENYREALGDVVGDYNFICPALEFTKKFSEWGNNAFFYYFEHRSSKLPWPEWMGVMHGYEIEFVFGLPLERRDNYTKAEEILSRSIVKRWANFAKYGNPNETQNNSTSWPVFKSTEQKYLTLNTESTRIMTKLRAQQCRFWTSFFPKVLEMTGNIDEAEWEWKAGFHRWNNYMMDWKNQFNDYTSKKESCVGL
T6 sequence (P06276 whole entry, looked up): as the sequence (P06276 whole entry) above
T6 sequence (P22303 whole entry, looked up): as the sequence (P22303 whole entry) above
Chain of Carbonic anhydrase 1 (P00915 whole entry): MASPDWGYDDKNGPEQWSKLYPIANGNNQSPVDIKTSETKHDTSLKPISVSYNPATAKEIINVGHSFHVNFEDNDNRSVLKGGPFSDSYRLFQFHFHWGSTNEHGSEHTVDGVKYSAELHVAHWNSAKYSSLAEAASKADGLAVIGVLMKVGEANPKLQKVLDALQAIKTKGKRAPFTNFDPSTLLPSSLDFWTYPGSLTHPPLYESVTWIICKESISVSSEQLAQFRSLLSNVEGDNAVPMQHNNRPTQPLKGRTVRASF
Chain of Fatty-acid amide hydrolase 1 (P97612 whole entry): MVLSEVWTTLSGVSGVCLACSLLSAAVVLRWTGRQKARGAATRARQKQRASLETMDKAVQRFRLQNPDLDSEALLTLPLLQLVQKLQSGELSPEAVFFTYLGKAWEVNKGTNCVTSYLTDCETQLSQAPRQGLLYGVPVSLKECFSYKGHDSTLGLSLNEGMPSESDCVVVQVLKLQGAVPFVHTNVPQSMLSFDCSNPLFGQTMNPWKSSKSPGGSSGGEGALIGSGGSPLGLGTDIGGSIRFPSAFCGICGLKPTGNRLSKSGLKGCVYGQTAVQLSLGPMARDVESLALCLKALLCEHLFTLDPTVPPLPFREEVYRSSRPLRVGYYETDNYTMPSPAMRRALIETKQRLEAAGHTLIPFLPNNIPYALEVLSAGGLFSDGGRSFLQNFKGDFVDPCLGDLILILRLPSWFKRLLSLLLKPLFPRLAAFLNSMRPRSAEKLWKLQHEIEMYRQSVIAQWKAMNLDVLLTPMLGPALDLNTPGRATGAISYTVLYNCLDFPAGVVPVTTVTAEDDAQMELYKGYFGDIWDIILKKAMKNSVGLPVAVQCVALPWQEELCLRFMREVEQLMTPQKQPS
Chain of Acetylcholinesterase (Torpedo californica, UniProt P04058) (P04058 whole entry): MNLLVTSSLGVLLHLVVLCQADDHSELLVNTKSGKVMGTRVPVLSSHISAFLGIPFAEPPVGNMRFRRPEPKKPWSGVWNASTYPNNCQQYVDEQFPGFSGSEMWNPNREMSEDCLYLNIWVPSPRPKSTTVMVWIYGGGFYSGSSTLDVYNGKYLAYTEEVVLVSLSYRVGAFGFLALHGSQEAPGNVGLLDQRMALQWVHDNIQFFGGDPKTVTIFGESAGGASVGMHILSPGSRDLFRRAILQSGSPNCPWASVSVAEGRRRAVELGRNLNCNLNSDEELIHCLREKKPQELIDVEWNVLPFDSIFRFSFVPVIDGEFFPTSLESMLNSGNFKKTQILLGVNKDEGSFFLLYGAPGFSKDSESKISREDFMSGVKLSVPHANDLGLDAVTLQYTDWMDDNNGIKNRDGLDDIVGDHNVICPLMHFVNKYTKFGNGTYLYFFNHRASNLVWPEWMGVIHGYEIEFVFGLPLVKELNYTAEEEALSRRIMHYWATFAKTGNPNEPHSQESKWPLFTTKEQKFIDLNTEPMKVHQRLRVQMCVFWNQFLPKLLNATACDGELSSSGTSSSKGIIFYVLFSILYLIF

## CC/N=C1\CCc2c1n(C)c1ccc(OC(=O)NC)c(Cl)c21
[1]
  pIC50: 6.80
[2]
  pIC50: 7.00
[3]
  pIC50: < 3.00

## COc1cc2c(c(OC)c1)CC(NC(=O)OCc1ccccc1)C2 (stereo not drawn)
[4]
  pKi: 9.58
[5]
  pKi: 8.25
[6]
  pKi: 8.13

## CCN(CC)C(=O)OC1C[N+]2(C)CCC1CC2 (stereo not drawn)
[7]
  pKi: 5.46
[8]
  pKi: 5.82

## CCc1ccccc1NC(=O)Oc1ccc2c(c1)[C@]1(C)CC[N+](C)([O-])[C@@H]1N2C (stereo partly drawn)
[9]
  Ratio IC50: 115
[10]
  pIC50: 8.32

## O=C(Nc1ccccc1)OC1CN2CCC1CC2 (stereo not drawn)
[7]
  pKi: 6.00
[8]
  pKi: 5.52

## C#CCN1CCC(CCc2cccc(OC(=O)Nc3ccccc3)c2)CC1
[11]
  inhibition: 51.9%
[12]
  inhibition at 100 µM: 54%

## Cc1c(Cl)c(=O)oc2cc(OCCCCSC(=S)N3C(C)CCCC3C)ccc12 (stereo not drawn)
[13]
  pIC50: 6.94
[14]
  pIC50: 5.23

## COc1ccc(NC(=O)Oc2ccc3c(c2)[C@]2(O)CCN(C(C)=O)[C@@H]2N3)cc1
[15]
  pIC50: < 4.00
[16]
  pIC50: 5.64
[17]
  Ratio IC50: > 43

## CC/N=C1\CCc2c1n(C)c1ccc(OC(=O)NC)c(Br)c21
[1]
  pIC50: 6.85
[2]
  pIC50: 6.68
[3]
  pIC50: < 3.00

## COc1cccc2c1CCCC2NS(=O)(=O)NC(=O)OCc1ccccc1 (stereo not drawn)
[5]
  pIC50: 8.35
[6]
  pIC50: 8.31
[18]
  pIC50: 9.68

## CN(CCCOc1ccc2ccc(=O)oc2c1)Cc1cccc(OC(=O)NC2CCCC2)c1
[19]
  pIC50: 8.19
[20]
  pIC50: 8.60
[21]
  Ratio IC50: 61.9

## Cc1c(Cl)c(=O)oc2cc(OCCCCSC(=S)N3CCCCC3C)ccc12 (stereo not drawn)
[13]
  pIC50: 8.17
[22]
  pIC50: 6.06

## COc1cccc2c1CCC(NC(=O)OCc1ccccc1)C2 (stereo not drawn)
[5]
  pKi: 8.23
[6]
  pKi: 8.13
[18]
  pKi: 9.58

## CC1CCCCN1CCCNC(=O)c1cc(NC(=O)OC(C)(C)C)ccc1O (stereo not drawn)
[23]
  pKi: 6.77
[24]
  pIC50: 7.81

## CC(=O)N1CC[C@@]2(O)c3cc(OC(=O)Nc4ccccc4)ccc3N[C@@H]12
[15]
  pIC50: 6.60
[16]
  pIC50: < 4.00
[17]
  Ratio IC50: > 400
